# Laboratory results as given in patent US20080021026A1, “BENZOTHIOPHENE INHIBITORS OF RHO KINASE” (priority 2006, published 2008).
# pIC50: −log10 of the molar value.
# Molecular target: T1, recombinant N-terminal GST-tagged human Rho kinase 2 (ROCK2, amino acids 1-552) (Homo sapiens, UniProt O75116)
# T1 construct: ROCK2, amino acids 1-552; purchased Invitrogen Inc. PV3759
# Assay: In vitro Rho kinase assay (luciferase-based ATP consumption), ROCK2
# Assay type: biochemical
# Settings: ROCK2 IC50, recombinant GST-tagged human ROCK2, luciferase-based ATP consumption
# Summary of the method: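 Luciferase-based luminescence of leftover ATP after 2 h at 30 °C, where inhibition raises signal, reports activity of GST-tagged ROCK2 (aa 1-552) at 0.82 μg/ml. Conditions: S6 peptide 100 μg/ml, […], pH 7.5 Tris buffer. Results given as percent of H-1152P control activity.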
# T1 sequence (O75116 1-552): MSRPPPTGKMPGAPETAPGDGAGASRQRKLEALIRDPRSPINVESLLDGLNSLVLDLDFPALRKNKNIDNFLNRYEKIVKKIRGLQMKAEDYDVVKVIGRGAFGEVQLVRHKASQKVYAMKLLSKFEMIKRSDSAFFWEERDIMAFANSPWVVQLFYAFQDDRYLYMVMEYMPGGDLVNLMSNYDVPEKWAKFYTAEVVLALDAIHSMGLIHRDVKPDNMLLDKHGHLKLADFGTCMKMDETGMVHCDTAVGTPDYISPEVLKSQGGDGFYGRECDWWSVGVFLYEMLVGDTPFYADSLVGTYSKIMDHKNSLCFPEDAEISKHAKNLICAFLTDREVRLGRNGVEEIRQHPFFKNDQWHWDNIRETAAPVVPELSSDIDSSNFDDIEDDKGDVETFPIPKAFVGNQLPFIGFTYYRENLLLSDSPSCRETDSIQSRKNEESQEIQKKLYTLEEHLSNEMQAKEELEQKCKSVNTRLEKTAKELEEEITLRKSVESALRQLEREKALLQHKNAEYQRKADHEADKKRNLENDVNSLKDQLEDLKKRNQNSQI
row,Compound,pIC50
1,"C#CCN(Cc1ccc(Cl)cc1Cl)C(=O)c1ccc2sc(-c3ccnc(N)n3)c(C)c2c1 [Example 559, Cc1c(sc2ccc(cc12)C(═O)N(CC#C)Cc3ccc(Cl)cc3Cl)-c4ccnc(N)n4]",< 5.30

# Same assay, conditions: recombinant GST-tagged human ROCK2, luciferase-based ATP consumption; read-out: ROCK2 IC50
row,Compound,pIC50
1,"Cc1c(-c2ccnc(N)n2)sc2ccc(Oc3cccc(O)c3)cc12 [Example 82, 3-(2-(2-Aminopyrimidin-4-yl)-3-methylbenzo[b]thiophen-5-yloxy)phenol]",> 5.30
2,"Cc1ccc([C@H](C)NC(=O)c2ccc3sc(-c4ccnc(N)n4)c(C)c3c2)cc1 [Example 394, C[C@H](NC(═O)c1ccc2sc(c(C)c2c1)-c3ccnc(N)n3)c4ccc(C)cc4]",< 5.30
3,"Cc1c(-c2ccnc(N)n2)sc2ccc(C(=O)NCCO)cc12 [Example 337, Cc1c(sc2ccc(cc12)C(═O)NCCO)-c3ccnc(N)n3]",> 5.30
4,"COc1ccc(CNC(=O)c2ccc3sc(-c4ccnc(N)n4)c(C)c3c2)cc1 [Example 403, COc1ccc(CNC(═O)c2ccc3sc(c(C)c3c2)-c4ccnc(N)n4)cc1]",> 5.30
5,"Cc1ccc(CNC(=O)c2ccc3sc(-c4ccnc(N)n4)c(C)c3c2)cc1 [Example 380, Cc1ccc(CNC(═O)c2ccc3sc(c(C)c3c2)-c4ccnc(N)n4)cc1]",> 5.30
6,"Cc1c(-c2ccnc(N)n2)sc2ccc(C(=O)NC(C)CO)cc12 (stereo not shown) [Example 344, CC(CO)NC(═O)c1ccc2sc(c(C)c2c1)-c3ccnc(N)n3]",> 5.30
7,"Cc1c(-c2ccnc(N)n2)sc2ccc(C(=O)NCCCn3ccnc3)cc12 [Example 385, Cc1c(sc2ccc(cc12)C(═O)NCCCn3ccnc3)-c4ccnc(N)n4]",> 5.30
8,"Cc1c(-c2ccnc(N)n2)sc2ccc(C(=O)NC3CCCCCC3)cc12 [Example 370, Cc1c(sc2ccc(cc12)C(═O)NC3CCCCCC3)-c4ccnc(N)n4]",< 5.30
9,"Cc1c(-c2ccnc(N)n2)sc2ccc(C(=O)NCCC(C)(C)C)cc12 [Example 358, Cc1c(sc2ccc(cc12)C(═O)NCCC(C)(C)C)-c3ccnc(N)n3]",> 5.30
10,"CCNC(=O)c1ccc2sc(-c3ccnc(N)n3)c(C)c2c1 [Example 330, CCNC(═O)c1ccc2sc(c(C)c2c1)-c3ccnc(N)n3]",> 5.30
11,"Cc1c(-c2ccnc(N)n2)sc2ccc(C(=O)NC3CCc4ccccc43)cc12 (stereo not shown) [Example 391, Cc1c(sc2ccc(cc12)C(═O)NC3CCc4ccccc34)-c5ccnc(N)n5]",> 5.30
12,"CCC(C)CNC(=O)c1ccc2sc(-c3ccnc(N)n3)c(C)c2c1 (stereo not shown) [Example 348, CCC(C)CNC(═O)c1ccc2sc(c(C)c2c1)-c3ccnc(N)n3]",> 5.30
13,"Cc1c(-c2ccnc(N)n2)sc2ccc(C(=O)NCc3ccc(F)cc3)cc12 [Example 383, Cc1c(sc2ccc(cc12)C(═O)NCc3ccc(F)cc3)-c4ccnc(N)n4]",> 5.30
14,"Cc1c(-c2ccnc(N)n2)sc2ccc(C(=O)NCCc3ccccc3)cc12 [Example 378, Cc1c(sc2ccc(cc12)C(═O)NCCc3ccccc3)-c4ccnc(N)n4]",> 5.30

# Results, then the molecule that gave them:
row,pIC50,Compound
1,> 5.30,"COc1ccccc1CCNC(=O)c1ccc2sc(-c3ccnc(N)n3)c(C)c2c1 [Example 424, COc1ccccc1CCNC(═O)c2ccc3sc(c(C)c3c2)-c4ccnc(N)n4]"
2,> 5.30,"Cc1c(-c2ccnc(N)n2)sc2ccc(C(=O)NCc3ccc(F)c(Cl)c3)cc12 [Example 432, Cc1c(sc2ccc(cc12)C(═O)NCc3ccc(F)c(Cl)c3)-c4ccnc(N)n4]"
3,< 5.30,"Cc1ccc(C)c(N2CCN(C(=O)c3ccc4sc(-c5ccnc(N)n5)c(C)c4c3)CC2)c1 [Example 539, Cc1ccc(C)c(c1)N2CCN(CC2)C(═O)c3ccc4sc(c(C)c4c3)-c5ccnc(N)n5]"
4,< 5.30,"Cc1c(-c2ccnc(N)n2)sc2ccc(C(=O)N3CCCC(c4ccc(C(F)(F)F)cc4)C3)cc12 (stereo not shown) [Example 571, Cc1c(sc2ccc(cc12)C(═O)N3CCCC(C3)c4ccc(cc4)C(F)(F)F)-c5ccnc(N)n5]"
5,> 5.30,"CCN(Cc1ccccc1)C(=O)c1ccc2sc(-c3ccnc(N)n3)c(C)c2c1 [Example 499, CCN(Cc1ccccc1)C(═O)c2ccc3sc(c(C)c3c2)-c4ccnc(N)n4]"
6,< 5.30,"Cc1c(-c2ccnc(N)n2)sc2ccc(C(=O)NCc3ccc(C(F)(F)F)cc3)cc12 [Example 444, Cc1c(sc2ccc(cc12)C(═O)NCc3ccc(cc3)C(F)(F)F)-c4ccnc(N)n4]"
7,> 5.30,"Cc1c(-c2ccnc(N)n2)sc2ccc(C(=O)NCCc3ccc4c(c3)OCO4)cc12 [Example 456, Cc1c(sc2ccc(cc12)C(═O)NCCc3ccc4OCOc4c3)-c5ccnc(N)n5]"
8,> 5.30,"Cc1c(-c2ccnc(N)n2)sc2ccc(C(=O)N3CCN(c4cccc(Cl)c4)CC3)cc12 [Example 544, Cc1c(sc2ccc(cc12)C(═O)N3CCN(CC3)c4cccc(Cl)c4)-c5ccnc(N)n5]"
9,> 5.30,"Cc1c(-c2ccnc(N)n2)sc2ccc(C(=O)N3CCOCC3)cc12 [Example 466, Cc1c(sc2ccc(cc12)C(═O)N3CCOCC3)-c4ccnc(N)n4]"
10,< 5.30,"Cc1c(-c2ccnc(N)n2)sc2ccc(C(=O)N3C(C)CCCC3C)cc12 (stereo not shown) [Example 483, CC1CCCC(C)N1C(═O)c2ccc3sc(c(C)c3c2)-c4ccnc(N)n4]"
11,> 5.30,"Cc1c(-c2ccnc(N)n2)sc2ccc(C(=O)N3CCN(c4ccc(C(C)(C)C)cc4)CC3)cc12 [Example 562, Cc1c(sc2ccc(cc12)C(═O)N3CCN(CC3)c4ccc(cc4)C(C)(C)C)-c5ccnc(N)n5]"
12,> 5.30,"Cc1c(-c2ccnc(N)n2)sc2ccc(C(=O)N3CCN(c4ccc(O)cc4)CC3)cc12 [Example 523, Cc1c(sc2ccc(cc12)C(═O)N3CCN(CC3)c4ccc(O)cc4)-c5ccnc(N)n5]"
13,< 5.30,"Cc1c(-c2ccnc(N)n2)sc2ccc(C(=O)N3CCN(C4CCCCC4)CC3)cc12 [Example 519, Cc1c(sc2ccc(cc12)C(═O)N3CCN(CC3)C4CCCCC4)-c5ccnc(N)n5]"
14,> 5.30,"Cc1c(-c2ccnc(N)n2)sc2ccc(C(=O)NCCc3ccc(F)cc3)cc12 [Example 405, Cc1c(sc2ccc(cc12)C(═O)NCCc3ccc(F)cc3)-c4ccnc(N)n4]"
15,> 5.30,"Cc1c(-c2ccnc(N)n2)sc2ccc(C(=O)NCCCNC(=O)OC(C)(C)C)cc12 [Example 443, Cc1c(sc2ccc(cc12)C(═O)NCCCNC(═O)OC(C)(C)C)-c3ccnc(N)n3]"
16,> 5.30,"Cc1c(-c2ccnc(N)n2)sc2ccc(C(=O)NCc3ccc(Cl)cc3)cc12 [Example 410, Cc1c(sc2ccc(cc12)C(═O)NCc3ccc(Cl)cc3)-c4ccnc(N)n4]"
17,< 5.30,"COc1ccc(CCN(C)C(=O)c2ccc3sc(-c4ccnc(N)n4)c(C)c3c2)cc1OC [Example 543, COc1ccc(CCN(C)C(═O)c2ccc3sc(c(C)c3c2)-c4ccnc(N)n4)cc1OC]"
18,< 5.30,"Cc1c(-c2ccnc(N)n2)sc2ccc(C(=O)NCCC(c3ccccc3)c3ccccc3)cc12 [Example 457, Cc1c(sc2ccc(cc12)C(═O)NCCC(c3ccccc3)c4ccccc4)-c5ccnc(N)n5]"
19,< 5.30,"Cc1c(-c2ccnc(N)n2)sc2ccc(C(=O)N3CCC(C(N)=O)CC3)cc12 [Example 494, Cc1c(sc2ccc(cc12)C(═O)N3CCC(CC3)C(N)═O)-c4ccnc(N)n4]"
20,> 5.30,"COc1cccc(CNC(=O)c2ccc3sc(-c4ccnc(N)n4)c(C)c3c2)c1 [Example 404, COc1cccc(CNC(═O)c2ccc3sc(c(C)c3c2)-c4ccnc(N)n4)c1]"
21,> 5.30,"CCCN(C)C(=O)c1ccc2sc(-c3ccnc(N)n3)c(C)c2c1 [Example 463, CCCN(C)C(═O)c1ccc2sc(c(C)c2c1)-c3ccnc(N)n3]"
22,> 5.30,"Cc1c(-c2ccnc(N)n2)sc2ccc(C(=O)N(CCO)CCO)cc12 [Example 480, Cc1c(sc2ccc(cc12)C(═O)N(CCO)CCO)-c3ccnc(N)n3]"
